From patent US4256736A, “Psychopharmacological peptides” (Akzona Incorporated, priority 1978, dated 1981)
Entries after “also recorded” stand apart in the source; their conditions may differ.

How the values were obtained:
rats [1] = assay: Pole-jumping avoidance behavior (pole climbing test), extinction of the flight response; type: in vivo, rat; settings: mean ± S.E.
Description: Rats were trained to jump onto a pole within 5 sec. following presentation of the conditioned stimulus (CS) which was a light on top of the cage. […] 10 trials a day were given in one session with an average intertrial interval of 60 sec. Intervals between trials were 40, 60 and 80 sec. which were presented in a random fashion. Rats were trained for 4 days. Extinction was studied the day following acquisition. During this first post-acquisition session failure to respond within 5 sec. to the CS were not followed by the UCS. All rats were given a 10 trial extinction session. Those animals which made 8 or more avoidances were used for further experimentation. These rats received peptide or placebo (saline) in a volume of 0.5 ml per rat s.c. immediately after completion of the first extinction session. Extinction was studied again 2 and 4 h. later.

opiate receptor = settings: in words, prior art section; cited from earlier work
rats [2] = settings: in words, prior art section; cited from earlier work
rats [3] = assay: Ambulation of rats; type: in vivo, rat; settings: in words, higher dosages
[4] = in words; cited from earlier work
[5] = in words; can be antagonised by naloxone; cited from earlier work
melanocytes = settings: in words; cited from earlier work
[6] = 0.03 μg per rat s.c., 0 h (first extinction session, injection immediately after)
[7] = 0.03 μg per rat s.c., 2 h after injection
[8] = 0.03 μg per rat s.c., 4 h after injection
[9] = 0.1 μg per rat s.c., 0 h (first extinction session, injection immediately after)
[10] = 0.1 μg per rat s.c., 2 h after injection
[11] = 0.1 μg per rat s.c., 4 h after injection
[12] = 0.3 μg per rat s.c., 0 h (first extinction session, injection immediately after)
[13] = 0.3 μg per rat s.c., 2 h after injection
[14] = 0.3 μg per rat s.c., 4 h after injection

O=C(CCCN1CCC(O)(c2ccc(Cl)cc2)CC1)c1ccc(F)cc1 [Haloperidol]
Extinction (10 trials) (rats [1]; [6]): 9.3 ± 0.3 | Extinction (10 trials) (rats [1]; [7]): 6.5 ± 0.7 | Extinction (10 trials) (rats [1]; [8]): 4.0 ± 0.6 | Extinction (10 trials) (rats [1]; [9]): 9.5 ± 0.4 | Extinction (10 trials) (rats [1]; [10]): 3.0 ± 0.0 | Extinction (10 trials) (rats [1]; [11]): 0.5 ± 0.4

D-Ala-Met-enkephalin
affinity for the opiate receptor (opiate receptor): Affinity for the opiate receptor

H-GGFMTSEKSQTPLVTL-OH [[Des-Tyr^1]γ-endorphin, H-Gly-Gly-Phe-Met-Thr-Ser-Glu-Lys-Ser-Gln-Thr-Pro-Leu-Val-Thr-Leu-OH]
Extinction (10 trials) (rats [1]; 0.01 μg per rat s.c., 0 h (first extinction session, injection immediately after)): 9.0 ± 0.3 | Extinction (10 trials) (rats [1]; 0.01 μg per rat s.c., 2 h after injection): 6.2 ± 0.4 | Extinction (10 trials) (rats [1]; 0.01 μg per rat s.c., 4 h after injection): 4.2 ± 0.7 | Extinction (10 trials) (rats [1]; [9]): 8.8 ± 0.4 | Extinction (10 trials) (rats [1]; [10]): 2.8 ± 1.0 | Extinction (10 trials) (rats [1]; [11]): 1.2 ± 0.5 | Extinction (10 trials) (rats [1]; [12]): 9.3 ± 0.5 | Extinction (10 trials) (rats [1]; [13]): 3.0 ± 0.7 | Extinction (10 trials) (rats [1]; [14]): 1.3 ± 0.5

Leu-enkephalin
affinity for the opiate receptor (opiate receptor): Affinity for the opiate receptor

Met-enkephalin
effect on extinction of the (active) flight response in the pole-climbing test (rats [2]): inhibit the extinction of the flight response | affinity for the opiate receptor (opiate receptor): a certain affinity for the opiate receptor

α-endorphin
Extinction (10 trials) (rats [1]; [12]): 9.0 ± 0.4 | Extinction (10 trials) (rats [1]; [13]): 8.3 ± 0.3 | Extinction (10 trials) (rats [1]; [14]): 7.8 ± 0.3 | reduction in ambulation (rats [3]): could not be observed | effect on extinction of the (active) flight response in the pole-climbing test (rats [2]): inhibit the extinction of the flight response; also recorded: retarded this extinction of the flight response | affinity for the opiate receptor (opiate receptor): a certain affinity for the opiate receptor

β-LPH-(61-69)
effect on extinction of the (active) flight response in the pole-climbing test (rats [2]): inhibit the extinction of the flight response | affinity for the opiate receptor (opiate receptor): a certain affinity for the opiate receptor

β-Lipotropin
fat-mobilising activity [4]: shows fat-mobilising activity

β-endorphin (YGGFMTSEKSQTPLVTLFKNAIIKNAYKKGE; Beta-endorphin; UniProt P01189 237-267, looked up)
effect on extinction of the (active) flight response in the pole-climbing test (rats [2]): inhibits the extinction of the (active) flight response | analgesic activity [5]: possess analgesic activity

β-melanotropin
influencing the pigmentation of the skin (melanocytes): capable of influencing the pigmentation of the skin by stimulating the melanocytes

γ-endorphin
Extinction (10 trials) (rats [1]; [6]): 8.8 ± 0.3 | Extinction (10 trials) (rats [1]; [7]): 6.7 ± 0.8 | Extinction (10 trials) (rats [1]; [8]): 4.0 ± 0.7 | Extinction (10 trials) (rats [1]; [9]): 9.3 ± 0.3 | Extinction (10 trials) (rats [1]; [10]): 5.5 ± 0.6 | Extinction (10 trials) (rats [1]; [11]): 2.3 ± 0.4 | Extinction (10 trials) (rats [1]; [12]): 9.0 ± 0.4 | Extinction (10 trials) (rats [1]; [13]): 4.6 ± 0.3 | Extinction (10 trials) (rats [1]; [14]): 0.8 ± 0.4 | reduction in ambulation (rats [3]): could not be observed | effect on extinction of the (active) flight response in the pole-climbing test (rats [2]): accelerate the extinction of the flight response

γ-lipotropin
fat-mobilising activity [4]: possesses fat-mobilising properties
